Key:
Type in all cases: in vivo
[1] = system: Coptotermes formosanus Shiraki; assay: Test Example 3: extirpation test with dust formulation using simulated termite trails
[2] = system: Coptotermes formosanus Shiraki; assay: Test Example 1: effect of agent on gypsum treated with test agent solution; conditions: dicloromezotiaz 0.023%, imidacloprid 0.1%, fipronil 0.03% test agent solution on gypsum
Protocol: A test agent solution containing 0.023 parts of dicloromezotiaz was prepared by adding 99.875 parts of water to 0.125 parts of the aqueous suspension composition shown in Formulation Example 1.
In a comparative example, an aqueous suspension composition prepared by adding an agent solution, wherein 99 parts of water was added to 1 part of a flowable containing 10.0 parts of imidacloprid and which contained 0.1 parts of imidacloprid and a drug solution, wherein 299 parts of water was added to 1 part of a flowable containing 9.1 parts of fipronil and which contained 0.03 parts of fipronil, uniformly mixing same was used as a test agent solution of a comparative example.
As the imidacloprid formulation and the fipronil formulation, commercially available termite controlling agents were used and diluted solutions at practical agent concentrations thereof were used as test agent solutions.
Gypsum was cured and spread in a glass petri dish having a diameter of 90 mm, 15 ml of each of the test agent solution of the example and the test agent solution of the comparative example was uniformly dropped on the entire surface of the gypsum. Thereafter, ten workers of Coptotermes formosanus Shiraki were released into the petri dish and the petri dish was covered and left to stand in a thermostatic chamber (25° C./relative humidity 60%).
The number of abnormal termites and the number of dead termites among the released termites (Coptotermes formosanus Shiraki) were observed every one hour from immediately after the release of the termites (Coptotermes formosanus Shiraki) until ten hours passed and the total number of the abnormal termite rate and the dead termite rate was calculated as the abnormal or dead termite rate (%) according to [Expression 1] below and the rates of expression of the effects of the respective agents were compared. Each test agent was prepared in one petri dish as one plot and the test was carried out in two replicates.

[3] = system: Coptotermes formosanus Shiraki; assay: Test Example 2: primary transmission treatment effect
Protocol: (§1) A test agent solution containing 0.023 parts of dicloromezotiaz was prepared by adding 99.875 parts of water to 0.125 parts of the aqueous suspension composition shown in Formulation Example 1. As comparative examples, four types of commercially available neonicotinoid termite controlling agents and four types of slow-acting termite controlling agents shown in Table 2 were diluted with water at practical concentrations to prepare test agent solutions. The “agent concentration (%)” indicates the concentration of the active ingredient contained in each of the composition of the present invention and the termite controlling agents and the “test agent solution concentration (%)” indicates the concentration of the active ingredient in each of the prepared test agent solutions.
(§2) After 1.2 g of each of the test agent solutions of the example and the comparative examples diluted to a predetermined concentration and prepared was added to 4.8 g of soil, 6 g of the mixed soil was spread in a glass petri dish having a diameter of 50 mm and ten workers of Coptotermes formosanus Shiraki were released into the petri dish and exposed to the agent solution for 4 hours.

[4] = system: Coptotermes formosanus Shiraki; assay: Test Example 2: secondary transmission treatment effect
Protocol: as §1, §2

Compound: Cc1cccn2c(=O)c(-c3cc(Cl)cc(Cl)c3)c([O-])[n+](Cc3cnc(Cl)s3)c12 [Dicloromezotiaz, dicloromezotiaz]
- Abnormal or dead termite rate (%) ([1]; active ingredient concentration 0.10%, 1 h): 0%
- Abnormal or dead termite rate (%) ([1]; active ingredient concentration 0.10%, 2 h): 0%
- Abnormal or dead termite rate (%) ([1]; active ingredient concentration 0.10%, 3 h): 0%
- Abnormal or dead termite rate (%) ([1]; active ingredient concentration 0.10%, 4 h): 25%
- Abnormal or dead termite rate (%) ([1]; active ingredient concentration 0.10%, 5 h): 35%
- Abnormal or dead termite rate (%) ([1]; active ingredient concentration 0.10%, 6 h): 40%
- Abnormal or dead termite rate (%) ([1]; active ingredient concentration 0.10%, 7 h): 40%
- Abnormal or dead termite rate (%) ([1]; active ingredient concentration 0.10%, 1 day): 85%
- Abnormal or dead termite rate (%) ([1]; active ingredient concentration 0.10%, 2 days): 100%
- Abnormal or dead termite rate (%) ([1]; active ingredient concentration 0.10%, 3 days): 100%
- Abnormal or dead termite rate (%) ([1]; active ingredient concentration 0.10%, 7 days): 100%
- Abnormal or dead termite rate (%) ([1]; active ingredient concentration 0.25%, 1 h): 0%
- Abnormal or dead termite rate (%) ([1]; active ingredient concentration 0.25%, 2 h): 0%
- Abnormal or dead termite rate (%) ([1]; active ingredient concentration 0.25%, 3 h): 25%
- Abnormal or dead termite rate (%) ([1]; active ingredient concentration 0.25%, 4 h): 25%
- Abnormal or dead termite rate (%) ([1]; active ingredient concentration 0.25%, 5 h): 60%
- Abnormal or dead termite rate (%) ([1]; active ingredient concentration 0.25%, 6 h): 100%
- Abnormal or dead termite rate (%) ([1]; active ingredient concentration 0.25%, 7 h): 100%
- Abnormal or dead termite rate (%) ([1]; active ingredient concentration 0.25%, 1 day): 100%
- Abnormal or dead termite rate (%) ([1]; active ingredient concentration 0.25%, 2 days): 100%
- Abnormal or dead termite rate (%) ([1]; active ingredient concentration 0.25%, 3 days): 100%
- Abnormal or dead termite rate (%) ([1]; active ingredient concentration 0.25%, 7 days): 100%
- Abnormal or dead termite rate (%) ([1]; active ingredient concentration 0.5%, 1 h): 0%
- Abnormal or dead termite rate (%) ([1]; active ingredient concentration 0.5%, 2 h): 0%
- Abnormal or dead termite rate (%) ([1]; active ingredient concentration 0.5%, 3 h): 45%
- Abnormal or dead termite rate (%) ([1]; active ingredient concentration 0.5%, 4 h): 45%
- Abnormal or dead termite rate (%) ([1]; active ingredient concentration 0.5%, 5 h): 100%
- Abnormal or dead termite rate (%) ([1]; active ingredient concentration 0.5%, 6 h): 100%
- Abnormal or dead termite rate (%) ([1]; active ingredient concentration 0.5%, 7 h): 100%
- Abnormal or dead termite rate (%) ([1]; active ingredient concentration 0.5%, 1 day): 100%
- Abnormal or dead termite rate (%) ([1]; active ingredient concentration 0.5%, 2 days): 100%
- Abnormal or dead termite rate (%) ([1]; active ingredient concentration 0.5%, 3 days): 100%
- Abnormal or dead termite rate (%) ([1]; active ingredient concentration 0.5%, 7 days): 100%
- Abnormal or dead termite rate (%) ([1]; active ingredient concentration 1%, 1 h): 0%
- Abnormal or dead termite rate (%) ([1]; active ingredient concentration 1%, 2 h): 30%
- Abnormal or dead termite rate (%) ([1]; active ingredient concentration 1%, 3 h): 85%
- Abnormal or dead termite rate (%) ([1]; active ingredient concentration 1%, 4 h): 85%
- Abnormal or dead termite rate (%) ([1]; active ingredient concentration 1%, 5 h): 100%
- Abnormal or dead termite rate (%) ([1]; active ingredient concentration 1%, 6 h): 100%
- Abnormal or dead termite rate (%) ([1]; active ingredient concentration 1%, 7 h): 100%
- Abnormal or dead termite rate (%) ([1]; active ingredient concentration 1%, 1 day): 100%
- Abnormal or dead termite rate (%) ([1]; active ingredient concentration 1%, 2 days): 100%
- Abnormal or dead termite rate (%) ([1]; active ingredient concentration 1%, 3 days): 100%
- Abnormal or dead termite rate (%) ([1]; active ingredient concentration 1%, 7 days): 100%
- Abnormal or dead termite rate (%) ([2]; time elapsed 1 h): 0%
- Abnormal or dead termite rate (%) ([2]; time elapsed 2 h): 0%
- Abnormal or dead termite rate (%) ([2]; time elapsed 3 h): 0%
- Abnormal or dead termite rate (%) ([2]; time elapsed 4 h): 0%
- Abnormal or dead termite rate (%) ([2]; time elapsed 5 h): 0%
- Abnormal or dead termite rate (%) ([2]; time elapsed 6 h): 19%
- Abnormal or dead termite rate (%) ([2]; time elapsed 7 h): 37%
- Abnormal or dead termite rate (%) ([2]; time elapsed 8 h): 51%
- Abnormal or dead termite rate (%) ([2]; time elapsed 9 h): 78%
- Abnormal or dead termite rate (%) ([2]; time elapsed 10 h): 100%
- Abnormal or dead termite rate (%) ([3]; after 1 day, Table 3, dicloromezotiaz 0.023%, fipronil 0.03%, imidacloprid 0.10%, chlorantraniliprole 0.05% solution in soil): 100%
- Abnormal or dead termite rate (%) ([3]; after 1 day, Table 4, dicloromezotiaz 0.023%, chlorfenapyr 0.11%, clothianidin 0.05%, dinotefuran 0.20%, thiamethoxam 0.10%, broflanilide 0.03% solution in soil): 100%
- Abnormal or dead termite rate (%) ([3]; after 3 days, Table 3, dicloromezotiaz 0.023%, fipronil 0.03%, imidacloprid 0.10%, chlorantraniliprole 0.05% solution in soil): 100%
- Abnormal or dead termite rate (%) ([3]; after 3 days, Table 4, dicloromezotiaz 0.023%, chlorfenapyr 0.11%, clothianidin 0.05%, dinotefuran 0.20%, thiamethoxam 0.10%, broflanilide 0.03% solution in soil): 100%
- Abnormal or dead termite rate (%) ([3]; after 7 days, Table 3, dicloromezotiaz 0.023%, fipronil 0.03%, imidacloprid 0.10%, chlorantraniliprole 0.05% solution in soil): 100%
- Abnormal or dead termite rate (%) ([3]; after 7 days, Table 4, dicloromezotiaz 0.023%, chlorfenapyr 0.11%, clothianidin 0.05%, dinotefuran 0.20%, thiamethoxam 0.10%, broflanilide 0.03% solution in soil): 100%
- Abnormal or dead termite rate (%) ([3]; after 14 days, Table 3, dicloromezotiaz 0.023%, fipronil 0.03%, imidacloprid 0.10%, chlorantraniliprole 0.05% solution in soil): 100%
- Abnormal or dead termite rate (%) ([3]; after 14 days, Table 4, dicloromezotiaz 0.023%, chlorfenapyr 0.11%, clothianidin 0.05%, dinotefuran 0.20%, thiamethoxam 0.10%, broflanilide 0.03% solution in soil): 100%
- Abnormal or dead termite rate (%) ([3]; after 21 days, Table 3, dicloromezotiaz 0.023%, fipronil 0.03%, imidacloprid 0.10%, chlorantraniliprole 0.05% solution in soil): 100%
- Abnormal or dead termite rate (%) ([3]; after 21 days, Table 4, dicloromezotiaz 0.023%, chlorfenapyr 0.11%, clothianidin 0.05%, dinotefuran 0.20%, thiamethoxam 0.10%, broflanilide 0.03% solution in soil): 100%
- Abnormal or dead termite rate (%) ([4]; after 1 day, Table 5, dicloromezotiaz 0.023%, fipronil 0.03%, imidacloprid 0.10%, chlorantraniliprole 0.05% solution in soil): 8.9%
- Abnormal or dead termite rate (%) ([4]; after 1 day, Table 6, dicloromezotiaz 0.023%, chlorfenapyr 0.11%, clothianidin 0.05%, dinotefuran 0.20%, thiamethoxam 0.10%, broflanilide 0.03% solution in soil): 2.2%
- Abnormal or dead termite rate (%) ([4]; after 3 days, Table 5, dicloromezotiaz 0.023%, fipronil 0.03%, imidacloprid 0.10%, chlorantraniliprole 0.05% solution in soil): 83%
- Abnormal or dead termite rate (%) ([4]; after 3 days, Table 6, dicloromezotiaz 0.023%, chlorfenapyr 0.11%, clothianidin 0.05%, dinotefuran 0.20%, thiamethoxam 0.10%, broflanilide 0.03% solution in soil): 44%
- Abnormal or dead termite rate (%) ([4]; after 7 days, Table 5, dicloromezotiaz 0.023%, fipronil 0.03%, imidacloprid 0.10%, chlorantraniliprole 0.05% solution in soil): 91%
- Abnormal or dead termite rate (%) ([4]; after 7 days, Table 6, dicloromezotiaz 0.023%, chlorfenapyr 0.11%, clothianidin 0.05%, dinotefuran 0.20%, thiamethoxam 0.10%, broflanilide 0.03% solution in soil): 88%
- Abnormal or dead termite rate (%) ([4]; after 14 days, Table 5, dicloromezotiaz 0.023%, fipronil 0.03%, imidacloprid 0.10%, chlorantraniliprole 0.05% solution in soil): 91%
- Abnormal or dead termite rate (%) ([4]; after 14 days, Table 6, dicloromezotiaz 0.023%, chlorfenapyr 0.11%, clothianidin 0.05%, dinotefuran 0.20%, thiamethoxam 0.10%, broflanilide 0.03% solution in soil): 88%
- Abnormal or dead termite rate (%) ([4]; after 21 days, Table 5, dicloromezotiaz 0.023%, fipronil 0.03%, imidacloprid 0.10%, chlorantraniliprole 0.05% solution in soil): 92%
- Abnormal or dead termite rate (%) ([4]; after 21 days, Table 6, dicloromezotiaz 0.023%, chlorfenapyr 0.11%, clothianidin 0.05%, dinotefuran 0.20%, thiamethoxam 0.10%, broflanilide 0.03% solution in soil): 84%

Source: patent publication US20250255304A1, “HIGHLY TRA[…] CONTROLLING COMPOSITION” (ZM Crop Protection Corporation, priority 2022, published 2025)
